Laboratory results: ChEMBL document CHEMBL1127218, “Synthesis, anti-human immunodeficiency virus, and anti-hepatitis B virus activity of pyrimidine oxathiolane nucleosides” (Bioorg Med Chem Lett, 1993)

Assays:
HepG2 [1] = assay: Percent inhibition for its anti-HBV activity in infected HepG2(2.2.15) cells at concentration of 25 uM; format: functional; settings: Homo sapiens
MT4 = assay: Compound was tested for its anti-HIV activity in acutely infected MT-4 cells; format: functional, cell-based; settings: Homo sapiens
[2] = Compound was tested for its cytotoxic activity in uninfected human peripheral blood mononuclear (PBM) cells; format: functional
[3] = Compound was tested for its anti-HIV activity against HIV-1 LAI in human peripheral blood mononuclear (PBM) cells; format: functional
Vero = assay: Compound was tested for its cytotoxic activity in uninfected Vero cells; format: functional, cell-based; settings: Chlorocebus sabaeus
HepG2 [4] = assay: Percent inhibition for its anti-HBV activity in infected HepG2(2.2.15) cells at concentration of 1 uM; format: functional; settings: Homo sapiens

Structure (SMILES) | inhibition at 25 µM (HepG2 [1]) [%] | EC50 (MT4) [µM] | IC50 [2] [µM] | EC50 [3] [µM] | IC50 (Vero) [µM] | inhibition at 1 µM (HepG2 [4]) [%]
Nc1nc(=O)n([C@H]2CS[C@@H](CO)O2)cc1I | 55 | > 200 | > 100 | 0.72 | > 100 | –
Nc1nc(=O)n([C@H]2CS[C@@H](CO)O2)cc1F | – | 2.1 | > 100 | 0.01 | > 100 | 90
Cc1cn([C@H]2CS[C@@H](CO)O2)c(=O)nc1N | 0 | > 200 | > 100 | > 100 | > 100 | –
Cc1cn([C@H]2CS[C@@H](CO)O2)c(=O)[nH]c1=O | 0 | > 200 | > 100 | 64.4 | > 100 | –
Nc1ccn([C@@H]2CS[C@H](CO)O2)c(=O)n1 [LAMIVUDINE] | – | 7 | > 100 | 0.06 | > 100 | 87
O=c1[nH]c(=O)n([C@H]2CS[C@@H](CO)O2)cc1Br | 11 | > 200 | > 100 | > 100 | > 100 | –
O=c1[nH]c(=O)n([C@H]2CS[C@@H](CO)O2)cc1I | 0 | > 200 | > 100 | > 100 | > 100 | –
O=c1[nH]c(=O)n([C@H]2CS[C@@H](CO)O2)cc1Cl | 59 | > 200 | > 100 | 60.8 | > 100 | –
Nc1nc(=O)n([C@H]2CS[C@@H](CO)O2)cc1Cl | 58 | > 200 | > 100 | 38.7 | > 100 | –
O=c1[nH]c(=O)n([C@H]2CS[C@@H](CO)O2)cc1F | 75 | > 200 | > 100 | > 100 | > 100 | –
O=c1ccn([C@H]2CS[C@@H](CO)O2)c(=O)[nH]1 | 0 | > 200 | > 100 | > 100 | > 100 | –
Nc1nc(=O)n([C@H]2CS[C@@H](CO)O2)cc1Br | 84 | > 200 | > 100 | 2.4 | > 100 | –
